Test results: patent US6951884B2, “Fluorobenzamides and uses thereof” (Hoffmann-La Roche Inc., priority 2002, dated 2005)
Structures can show the parent of a compound that is named as a salt.

Target: T1, human MAO-B (Homo sapiens, UniProt P27338)
T1 construct: expressed in transfected cells; host or cells: EBNA cells (transient transfection); membranes obtained by homogenisation and centrifugation at 45,000 x g
T1 sequence (P27338 1-520): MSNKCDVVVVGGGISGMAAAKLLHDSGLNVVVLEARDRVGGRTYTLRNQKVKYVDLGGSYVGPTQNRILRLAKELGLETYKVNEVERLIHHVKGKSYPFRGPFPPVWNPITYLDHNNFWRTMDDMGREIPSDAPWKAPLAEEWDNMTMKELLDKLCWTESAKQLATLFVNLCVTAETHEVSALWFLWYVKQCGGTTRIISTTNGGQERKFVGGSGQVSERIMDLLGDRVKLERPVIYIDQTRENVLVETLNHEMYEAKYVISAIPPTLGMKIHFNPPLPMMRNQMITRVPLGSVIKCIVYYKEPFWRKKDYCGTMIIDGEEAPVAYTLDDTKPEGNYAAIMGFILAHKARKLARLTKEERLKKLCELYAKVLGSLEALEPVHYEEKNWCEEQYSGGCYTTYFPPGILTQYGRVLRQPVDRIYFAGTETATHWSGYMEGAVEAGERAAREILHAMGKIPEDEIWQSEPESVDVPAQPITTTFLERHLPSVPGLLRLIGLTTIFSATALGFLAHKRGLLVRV
Experiment: MAO-B enzymatic activity assay (spectrophotometric, tyramine/Amplex Red) on membranes of transfected EBNA cells
Format: biochemical
Conditions: membranes of EBNA cells transfected with human MAO-B cDNA; substrate tyramine; 30 min preincubation at 37° C.; read-out: IC50, MAO-B inhibition
Description: The cDNA's encoding human MAO-A and MAO-B were transiently transfected into EBNA cells using the procedure described by E.-J. Schlaeger and K. Christensen (Transient Gene Expression in Mammalian Cells Grown in Serum-free Suspension Culture; Cytotechnology, 15: 1-13, 1998). After transfection, cells were homogeneised by means of a Polytron homogeneiser in 20 mM Tris HCl buffer, pH 8.0, containing 0.5 mM EGTA and 0.5 mM phenylmethanesulfonyl fluoride. Cell membranes were obtained by centrifugation at 45,000×g and, after two rinsing step with 20 mM Tris HCl buffer, pH 8.0, containing 0.5 mM EGTA, membranes were eventually re-suspended in the above buffer and aliquots stored at −80° C. until use.
MAO-A and MAO-B enzymatic activity was assayed in 96-well-plates using a spectrophotometric assay adapted from the method described by M. Zhou and N. Panchuk-Voloshina (A One-Step Fluorometric Method for the Continuous Measurement of Monoamine Oxidase Activity, Analytical Biochemistry, 253: 169-174, 1997). Briefly, membrane aliquots were incubated in 0.1 M potassium phosphate buffer, pH 7.4, for 30 min at 37° C. with or without various concentrations of the compounds. After this period, the enzymatic reaction was started by the addition of the MAO substrate tyramine together with 1 U/ml horse-radish peroxidase (Roche Biochemicals) and 80 μM N-acetyl-3,7,-dihydroxyphenoxazine (Amplex Red, Molecular Probes). The samples were further incubated for 30 min at 37° C. in a final volume of 200 μl and absorbance was then determined at a wavelength of 570 nm using a SpectraMax plate reader (Molecular Devices). Background (non-specific) absorbance was determined in the presence of 10 μM clorgyline for MAO-A or 10 μM L-deprenyl for MAO-B.
IC50 values were determined from inhibition curves obtained using nine inhibitor concentrations in duplicate, by fitting data to a four parameter logistic equation using a computer program.

Row | SMILES | IC50
1 | COCCNC(=O)c1c(F)cc(OCc2ccc(F)cc2)cc1F [Example 41, 2,6-Difluoro-4-(4-fluoro-benzyloxy)-N-(2-methoxy-ethyl)-benzamide] | 13 nM
2 | COCCNC(=O)c1ccc(OCc2cccc(F)c2)cc1F [Example 6, 2-Fluoro-4-(3-fluoro-benzyloxy)-N-(2-methoxy-ethyl)-benzamide] | 19.5 nM
3 | C[C@@H](NC(=O)c1ccc(OCc2cccc(F)c2)c(F)c1)C(N)=O [Example 27, (R)-N-(1-Carbamoyl-ethyl)-3-fluoro-4-(3-fluoro-benzyloxy)-benzamide] | 23 nM
4 | C[C@H](NC(=O)c1ccc(OCc2cccc(F)c2)c(F)c1)C(N)=O [Example 26, (S)-N-(1-Carbamoyl-ethyl)-3-fluoro-4-(3-fluoro-benzyloxy)-benzamide] | 19 nM
5 | C[C@H](NC(=O)c1c(F)cc(OCc2ccc(F)cc2)cc1F)C(N)=O [Example 37, (S)-N-(1-Carbamoyl-ethyl)-2,6-difluoro-4-(4-fluoro-benzyloxy)-benzamide] | 22 nM
6 | NCCNC(=O)c1ccc(OCc2ccc(C(F)(F)F)cc2)c(F)c1 [Example 36, N-(2-Amino-ethyl)-3-fluoro-4-(4-trifluoromethyl-benzyloxy)-benzamide 1:1 hydrochloride] | 19 nM
7 | NC(=O)CNC(=O)c1ccc(OCc2cccc(F)c2)cc1F [Example 2, 2-[4-(3-Fluorobenzyloxy)-2-fluoro-benzamido]acetamide] | 15.3 nM
8 | COCCNC(=O)c1ccc(OCc2ccc(F)cc2)c(F)c1 [Example 22, 3-Fluoro-4-(4-fluoro-benzyloxy)-N-(2-methoxy-ethyl)-benzamide] | 18 nM
9 | NC(=O)[C@H](CO)NC(=O)c1ccc(OCc2ccc(C(F)(F)F)cc2)c(F)c1 [Example 34, (S)-N-(1-Carbamoyl-2-hydroxy-ethyl)-3-fluoro-4-(4-trifluoromethyl-benzyloxy)-benzamide] | 25 nM
10 | NC(=O)CNC(=O)c1ccc(OCc2ccc(C(F)(F)F)cc2)c(F)c1 [Example 31, 2-[4-(4-Trifluoromethylbenzyloxy)-3-fluoro-benzamido]acetamide] | 16 nM
11 | C[C@H](NC(=O)c1ccc(OCc2ccc(C(F)(F)F)cc2)cc1F)C(N)=O [Example 12, (S)-N-(1-Carbamoyl-ethyl)-2-fluoro-4-(4-trifluoromethyl-benzyloxy)-benzamide] | 25.7 nM
12 | COCCNC(=O)c1c(F)cc(OCc2cccc(F)c2)cc1F [Example 51, 2,6-Difluoro-4-(3-fluoro-benzyloxy)-N-(2-methoxy-ethyl)-benzamide] | 24 nM
13 | NC(=O)CNC(=O)c1c(F)cc(OCc2ccc(F)cc2)cc1F [Example 39, N-Carbamoylmethyl-2,6-difluoro-4-(4-fluoro-benzyloxy)-benzamide] | 27 nM
14 | C[C@@H](CO)NC(=O)c1c(F)cc(OCc2ccc(F)cc2)cc1F [Example 45, (S)-2,6-Difluoro-4-(4-fluoro-benzyloxy)-N-(2-hydroxy-1-methyl-ethyl)-benzamide] | 23 nM

These reach a lower IC50. Values come first.

Row | IC50 | SMILES
15 | 11 nM | NC(=O)[C@H](CO)NC(=O)c1ccc(OCc2ccc(F)cc2)c(F)c1 [Example 20, (S)-N-(1-Carbamoyl-2-hydroxy-ethyl)-3-fluoro-4-(4-fluoro-benzyloxy)-benzamide]
16 | 8 nM | COC[C@H](C)NC(=O)c1ccc(OCc2cccc(F)c2)cc1F [Example 4, (S)-2-Fluoro-4-(3-fluoro-benzyloxy)-N-(2-methoxy-1-methyl-ethyl)-benzamide]
17 | 3.1 nM | NC(=O)CNC(=O)c1ccc(OCc2ccc(F)cc2)c(F)c1 [Example 19, 2-[4-(4-Fluorobenzyloxy)-3-fluoro-benzamido]acetamide]
18 | 11.6 nM | NC(=O)[C@H](CO)NC(=O)c1ccc(OCc2cccc(F)c2)cc1F [Example 5, (S)-N-(1-Carbamoyl-2-hydroxy-ethyl)-2-fluoro-4-(3-fluoro-benzyloxy)-benzamide]
19 | 5.9 nM | C[C@H](NC(=O)c1ccc(OCc2cccc(F)c2)cc1F)C(N)=O [Example 1, (S)-N-(1-Carbamoyl-ethyl)-2-fluoro-4-(3-fluoro-benzyloxy)-benzamide]
20 | 12 nM | NC(=O)[C@H](CO)NC(=O)c1ccc(OCc2cccc(F)c2)c(F)c1 [Example 28, (S)-N-(1-Carbamoyl-2-hydroxy-ethyl)-3-fluoro-4-(3-fluoro-benzyloxy)-benzamide]
21 | 11.6 nM | NC(=O)CNC(=O)c1ccc(OCc2ccc(F)cc2)cc1F [Example 10, 2-[4-(4-Fluorobenzyloxy)-2-fluoro-benzamido]acetamide]
22 | 7 nM | C[C@H](NC(=O)c1ccc(OCc2ccc(F)cc2)cc1F)C(N)=O [Example 11, (S)-N-(1-Carbamoyl-ethyl)-2-fluoro-4-(4-fluoro-benzyloxy)-benzamide]
23 | 7 nM | C[C@H](NC(=O)c1ccc(OCc2ccc(F)cc2)c(F)c1)C(N)=O [Example 18, (S)-N-(1-Carbamoyl-ethyl)-3-fluoro-4-(4-fluoro-benzyloxy)-benzamide]
24 | 5 nM | NC(=O)CNC(=O)c1ccc(OCc2cccc(F)c2)c(F)c1 [Example 25, 2-[4-(3-Fluorobenzyloxy)-3-fluoro-benzamido]acetamide]
